# Test results taken from a melting point compilation (Tetko et al.; mined from patent text by program, amines drawn as free bases though some values may be those of a salt).
row,SMILES,melting point [°C]
1,COc1ccc(S(=O)(=O)N2CCc3cccc(-c4ccc(F)c(F)c4)c32)cc1,180 to 181
2,O=[N+]([O-])c1cccc2c1S(=O)(=O)C=C2,195 to 197
3,O=C(NNc1ccc(NC(=S)Nc2ccccc2)cc1)C(F)(F)F,172 to 174
4,CCOc1cc2c(Nc3ccc(OC)cc3)c(C#N)cnc2nc1C,190 to 192
5,Cn1c(=O)nc(-c2ccccc2Cl)c2ccsc21,225 to 226
6,Cc1nn(C)c2c1N(C(=O)CN1CCCC1)c1ccccc1NC2=O,114 to 116
7,Cc1noc(C)c1-c1cc(OC2SCC(O)C(O)C2O)ccn1 (stereo not drawn),143 to 147
8,CC(=O)Nc1ccc2c(c1)CCN2NC(C)=O,217 to 218
9,CCOc1cc(C(F)(F)F)sc1C(=O)OC,93.6
10,N#CN=C(Nc1ccncc1)NC1CCCCCCC1,198 to 199
11,CCOP(=O)(Cc1ccc(NC(=O)C2=Cc3cc(C4CCCCC4)ccc3CC2)cc1)OCC,137 to 138
12,CCOC(=O)Nc1ccc2c(c1)CC[C@H](CCC(F)(F)F)O2,88
13,ON=Cc1c[nH]c2cccc(OCc3ccccc3)c12,206 to 210
14,CCCCC#CCCOc1ccc(C=O)cc1OC,64.5 to 65.5
15,CN(C)Cc1ccc(CSCCNc2[nH]ccc2[N+](=O)[O-])o1,67
16,CCCCOc1c(CO)n(CC(C)(C)C)c(=O)c2ccc(OCC)cc12,92.5 to 93
17,CC(=O)OC1CSC(Sc2ccc(C#N)cc2)C(OC(C)=O)C1OC(C)=O (stereo not drawn),155
18,CCCn1c(=O)c(N=O)c(N)n(CCc2ccc([N+](=O)[O-])cc2)c1=O,204 to 205
19,Cn1nc(-c2c(Cl)cccc2Cl)nc1-c1sc(Br)c(Cl)c1Cl,197 to 199
20,C#CCn1c(-c2cc(Cl)nc(Cl)c2)nc(O)c(OC)c1=O,227 to 228
21,CC(=O)N(C)C(=N[N+](=O)[O-])NCc1csc(Cl)n1,105 to 108
22,O=C(/C=C/c1c(-c2ccc(F)cc2)nc2sccn12)c1ccc2ccccc2c1,216 to 218
23,COc1cc(N)c(Cl)cc1C(=O)NCC1CCC(C)N1Cc1ccccc1 (stereo not drawn),136 to 137
24,CCOC(=O)c1cn(CC)c2nc(N3CCC(NC(C)=O)C3)c(F)cc2c1=O (stereo not drawn),266 to 269
25,O=C(C#Cc1ccc(-c2ccc(Cl)cc2)cc1)Nc1ccc(CNCC2CCCCC2)cc1,205 to 210
26,CCc1c(Oc2ncc(C(F)(F)F)cc2Cl)n[nH]c1C,74 to 75

row,SMILES,melting point [°C]
1,Cc1c(F)c(F)cc2c(=O)c(C(=O)O)cn(-c3ccc(F)c(O)c3)c12,> 280
2,O=c1ccn2nc(-c3ccncc3)c(-c3ccc(F)cc3)c2[nH]1,298 to 299
3,CCOC(=O)Cn1c(=O)[nH]c(=O)c2ccccc21,249 to 250
4,Cn1cc(C2=C(c3cn(CCCNc4ncccc4[N+](=O)[O-])c4ccccc34)C(=O)NC2=O)c2ccccc21,218 to 220
5,Cc1ccc(-c2nc(COc3ccc(CCCCn4ccnc4)cc3)cs2)s1,81 to 82
6,CCOC(=O)/C=C/c1ccc(OCCOC)cc1OCc1ccc(Cl)cc1Cl,101
7,CCOCc1nc2c(N)nc3ccccc3c2n1CCCCCS(N)(=O)=O,176 to 178
8,Cc1nc(CC2CCc3c(C)c4ccccc4n3C2=O)c(C)[nH]1 (stereo not drawn),219 to 221
9,COc1ccc2[nH]c(SCc3cc(N)c(Br)cn3)nc2c1,183 to 184
10,CN(C)CCCn1cc(Br)c2c3c(c(-c4ccccc4Cl)cc21)C(=O)NC3=O,160 to 162
11,NC(=O)CSC(=O)c1ccco1,126 to 128
12,CN1Cc2c(C(N)=O)ncn2-c2ccccc2C1=O,274 to 275
13,CCOC(=O)c1ccc(Nc2ccc([N+](=O)[O-])cc2N)cc1,145 to 150
14,CC(=O)NC1Cc2ccc(Cl)cc2C1 (stereo not drawn),117 to 119
15,COc1cccc(N2CCN(C[C@H](CC3CCCCC3)NC(=O)C3CCCCC3)CC2)n1,107 to 109
16,O=C1N(C(c2ccccc2)c2ccccc2)c2cccc(F)c2C12COc1cc3c(cc12)OCCO3 (stereo not drawn),196 to 198
17,O=Cc1cccc2c1OC(c1ccccc1)CC2=O (stereo not drawn),112 to 113
18,CCOC(=O)Cc1cccc(S(=O)(=O)c2ccccc2)c1[N+](=O)[O-],105 to 106
19,Cc1cc2ncn(Cc3ccc(N)cc3)c2cc1C,238 to 239
20,COc1cc(O)c(C=NNC(=O)c2cc3ccccc3s2)c(OC)c1,205
21,CCOC(=O)C(=O)Nc1ccc2ccccc2c1NC(=O)C(=O)OCC,150 to 151
22,COc1cccc(-n2c(N3CCNCC3)c(C(=O)N3CCN(C)CC3)c3ccccc32)c1,228 to 230
23,CC(C)(C)c1cc(SCN2C(=O)CC(Sc3cc(C(C)(C)C)c(O)c(C(C)(C)C)c3)C2=O)cc(C(C)(C)C)c1O (stereo not drawn),138 to 140
24,CS(=O)(=O)NC(=O)C1(CCCCCCCCCCCCC2(C(=O)NS(C)(=O)=O)CC2)CC1,148
25,Nc1ccc(-n2cnc(-c3ccc(C(F)(F)F)cc3)n2)cc1Cl,148
26,CC(=O)Nc1cc2c(c(C)c1C)OC(C)(C)C2,163 to 164

row,SMILES,melting point [°C]
1,COc1cccc(CC(=O)O)c1OCCCc1cn(-c2nnc(C(F)(F)F)s2)nc1C(C)C,114 to 115
2,CCSCCc1c(-c2ccccc2)nc(N)n2ncnc12,120 to 122
3,CCOP(=O)(CC(=O)Nc1cc2c(Nc3ccc(OCc4ccccn4)c(Cl)c3)ncnc2cn1)OCC,113 to 116
4,CCCCCCC(CCC)OC1(C(C)=O)C=CC=CC1 (stereo not drawn),38 to 39
5,CC(C)SC(C)(C)C(=O)O,51.5 to 52.5
6,O=C(c1ccc([N+](=O)[O-])[nH]1)C(Cl)(Cl)Cl,160 to 163
7,CC(C)(C)CNC(=NC#N)Nc1cccnc1,214 to 215
8,CC(C)c1cccc(C(C)C)c1NC(=O)NS(=O)(=O)Oc1c(C(C)C)cccc1C(C)C,186 to 189
9,COc1ccnc(CSc2nc3c(C)c(OC(F)F)c(C)cc3[nH]2)c1,168 to 169
10,CCOC(=O)Cc1nc2cc(C)ccc2o1,68 to 69
11,COc1ccc2c(c1)Sc1ccc(SC)cc1C(Cl)C2 (stereo not drawn),120 to 123
12,CCOC(=O)N1Cc2ccccc2C2(Cc3ccccc3O2)C1 (stereo not drawn),65 to 75
13,CC#CC(C)(C)NC(=O)C(CC)Oc1ccc2ncc(C#N)cc2c1 (stereo not drawn),116 to 118
14,O=C(/C(=C\c1ccc(I)cc1)Sc1ccc(Br)cc1)c1ccc(Br)cc1,128 to 130
15,C=CC(O)(C(CCCCOc1ccccc1)n1cncn1)C(C)(C)C (stereo not drawn),66 to 69
16,O=S(=O)(NCCO)c1ccc(Nc2nc(OCC3CCCCC3)c3nc[nH]c3n2)cc1,158 to 160
17,CS[C@@H]1CC[C@H](C(=O)O)Cc2onc(-c3ccc(Cl)cc3)c21 (relative stereo),241 to 242
18,COc1ccc2c(c1)CN(C(=O)CN1CCOCC1)N=C2Cc1c(Cl)cncc1Cl,180 to 182
19,O=S(=O)(Cl)c1c(Cl)cc(F)cc1Cl,57
20,COC1=CC(C)=NN(NC(=O)N=NS(=O)(=O)C2SCCN2OCC=CCl)N1 (stereo not drawn),145 to 147
21,Cc1cc(Nc2ccnc(Cl)n2)ccc1F,130 to 131
22,COc1ccc(S(=O)(=O)N(C)C)c(S(N)(=O)=O)c1,106 to 109
23,COC1CCCC(C2NC(=O)C2C(C)O[Si](C)(C)C(C)(C)C)C1O (stereo not drawn),146 to 148
24,OC(C1=NCC2CCCCN12)(c1ccccc1)c1ccccc1 (stereo not drawn),131 to 133
25,N[C@@H](Cc1ccc(C(F)(F)F)cc1)[C@H](O)c1ccc(F)c(F)c1 (racemic),99 to 100
26,CC(C)(C)OC(=O)NCC12CCC1CNC2 (stereo not drawn),83 to 86

row,SMILES,melting point [°C]
1,CCCCCCc1ccc(-c2ccc(COC(c3ccccc3)(c3ccccc3)c3ccccc3)cc2[N+](=O)[O-])cc1,86 to 87
2,O=C(O)CCCCCc1nn(-c2ccccc2)c2c1CCC2,95 to 96
3,CC(=O)Nc1cc(Cl)c(Cl)cc1NC(=O)Nc1cc(C(F)(F)F)ccc1Cl,262 to 264
4,CCN(CC)c1cccc2nc3n(c12)CC(=O)CCN3c1ccc(Cl)cc1Cl,169 to 170
5,COc1ccnc(Cl)c1C#N,168 to 171
6,NCc1ccc2sc3ccccc3c(=O)c2c1,134 to 136
7,CN(C)c1ncnc2c(NC3OC(CO)C(O)C3O)ncnc12 (stereo not drawn),231
8,CC(O)=C(C#N)C(=O)Nc1ccc(OC(F)(F)F)c(Br)c1,178 to 179
9,CCOC(=O)c1ccc(OCCCCCCCCC#CCCCCOc2ccc(Cl)cc2)cc1,52 to 53
10,C[Si](C)(C)C#Cc1cccc2ccccc12,41 to 43
11,CN1C(=O)CC[C@]2(C)c3ccc(-c4ccccc4[N+](=O)[O-])cc3CC[C@@H]12,130 to 131
12,O=C(C1NCCc2sccc21)N1CCCC1 (stereo not drawn),114 to 116
13,CC(O)c1cc2c(s1)C(=O)c1sccc1C2=O (stereo not drawn),170 to 172
14,Cc1cccc(NC(c2ccc(C(F)(F)F)cc2)c2ccc3cccnc3c2O)n1 (stereo not drawn),136 to 138
15,O=C(O)c1ccc(-c2ccc3nnn(Cc4ccc5ncccc5c4)c3n2)cc1,245 to 247
16,O=c1cc(NCCN2CCN(c3ccc(F)cc3)CC2)cn[nH]1,96 to 98
17,Cc1ccc(NC(=O)N(C)Cc2cccc3c2C(=O)N(C2CCC(=O)NC2=O)C3=O)cc1 (stereo not drawn),> 260
18,COc1ccc(-c2cc(=O)c3c(OCC4=COC(C)(C)O4)cc(OCC4=COC(C)(C)O4)cc3o2)cc1O,160
19,O=C(O)c1cc(-c2ccncc2)c[nH]c1=O,> 300
20,OC[C@H]1COc2cc(Cl)ccc2O1,73 to 75
21,CCC(=O)Nc1ccc(OCc2nc(Cl)ccc2Cl)cc1,169 to 171
22,NS(=O)(=O)c1cc(C(=O)CCCCN(CCc2ccccc2OC(F)(F)F)C(=O)C(F)(F)F)cc2c1OCC2,108 to 110
23,Cc1nn(-c2ccccn2)c2ncc(C(=O)NCc3ccccc3)c(O)c12,> 300
24,CCN(CC)CCNc1ccc(NCCN(CC)CC)c2c1C(=O)c1c(O)ccc(O)c1C2=O,202 to 204
25,OC(c1ccccc1)c1ccc2c(c1)N1CCN=C1S2 (stereo not drawn),175
